In ChEMBL document CHEMBL1122184, “Synthesis and antileukemic activity of fluorinated analogues of 2,3-dihydro-5-phenyl-6,7-bis(hydroxymethyl)-1H-pyrrolizine biscarbamate” (J Med Chem, 1982):

Columns and labels:
Mus musculus [1] = test: In vivo activity of compound was measured against P388 lymphocytic leukemia at the dose of 50 mg/kg; toxic; format: functional, organism-based; set-up: dose 50 mg/kg
Mus musculus [2] = test: In vivo activity of compound was measured against P388 lymphocytic leukemia at the dose of 12.5 mg/kg.; format: functional
Mus musculus [3] = test: In vivo activity of compound was measured against P388 lymphocytic leukemia at the dose of 25 mg/kg.; format: functional
Mus musculus [4] = test: In vivo activity of compound was measured against P388 lymphocytic leukemia at the dose of 3.13 mg/kg.; format: functional
Mus musculus [5] = test: In vivo activity of compound was measured against P388 lymphocytic leukemia at the dose of 200 mg/kg; toxic; format: functional, organism-based; set-up: dose 200 mg/kg
Mus musculus [6] = test: In vivo activity of compound was measured against P388 lymphocytic leukemia at the dose of 100 mg/kg; toxic; format: functional, organism-based; set-up: dose 100 mg/kg
Mus musculus [7] = test: In vivo activity of compound was measured against P388 lymphocytic leukemia at the dose of 6.25 mg/kg.; format: functional
Mus musculus [8] = test: In vivo activity of compound was measured against P388 lymphocytic leukemia at the dose of 1.56 mg/kg.; format: functional
Mus musculus [9] = test: In vivo activity of compound was measured against P388 lymphocytic leukemia at the dose of 100 mg/kg; format: functional
Mus musculus [10] = test: In vivo activity of compound was measured against P388 lymphocytic leukemia at the dose of 50 mg/kg; format: functional
Mus musculus [11] = test: In vivo activity of compound was measured against P388 lymphocytic leukemia at the dose of 6.25 mg/kg; format: functional
Mus musculus [12] = test: In vivo activity of compound was measured against P388 lymphocytic leukemia at the dose of 12.5 mg/kg; format: functional
Mus musculus [13] = test: In vivo activity of compound was measured against P388 lymphocytic leukemia at the dose of 25 mg/kg; format: functional
Mus musculus [14] = test: In vivo activity of compound was measured against P388 lymphocytic leukemia at the dose of 0.78 mg/kg.; format: functional
Mus musculus [15] = test: In vivo activity of compound was measured against P388 lymphocytic leukemia at the dose of 25 mg/kg; toxic; format: functional, organism-based; set-up: dose 25 mg/kg
Mus musculus [16] = test: In vivo activity of compound was measured against P388 lymphocytic leukemia at the dose of 0.76 mg/kg.; format: functional
Mus musculus [17] = test: In vivo activity of compound was measured against P388 lymphocytic leukemia at the dose of 50 mg/kg.; format: functional
Mus musculus [18] = test: In vivo activity of compound was measured against P388 lymphocytic leukemia at the dose of 100 mg/kg.; format: functional
Mus musculus [19] = test: In vivo activity of compound was measured against P388 lymphocytic leukemia at the dose of 0.78 mg/kg; toxic; format: ADME, organism-based; set-up: dose 0.78 mg/kg

| Compound | T/C (Mus musculus [1]) | T/C (Mus musculus [2]) | T/C (Mus musculus [3]) | T/C (Mus musculus [4]) | T/C (Mus musculus [5]) | T/C (Mus musculus [6]) | T/C (Mus musculus [7]) | T/C (Mus musculus [8]) | T/C (Mus musculus [9]) | T/C (Mus musculus [10]) | T/C (Mus musculus [11]) | T/C (Mus musculus [12]) | T/C (Mus musculus [13]) | T/C (Mus musculus [14]) | T/C (Mus musculus [15]) | T/C (Mus musculus [16]) | T/C (Mus musculus [17]) | T/C (Mus musculus [18]) | T/C (Mus musculus [19]) |
| --- | --- | --- | --- | --- | --- | --- | --- | --- | --- | --- | --- | --- | --- | --- | --- | --- | --- | --- | --- |
| CNC(=O)OCc1c(COC(=O)NC)c(-c2cccc(F)c2F)n2c1CCC2 | Toxic | 149% | 156% | 134% | Toxic | Toxic | 131% | – | – | – | – | – | – | – | – | – | – | – | – |
| CC(C)NC(=O)OCc1c(COC(=O)NC(C)C)c(-c2ccc(Cl)c(Cl)c2)n2c1CCC2 | – | 177% | 226% | 141% | Toxic | – | 149% | 122% | 113% | 160% | – | – | – | – | – | – | – | – | – |
| CNC(=O)OCc1c(COC(=O)NC)c(-c2c(F)cccc2F)n2c1CCC2 | Toxic | 148% | 88% | 148% | Toxic | Toxic | 166% | – | – | – | – | – | – | – | – | – | – | – | – |
| CNC(=O)OCc1c(COC(=O)NC)c(-c2cc(F)ccc2F)n2c1CCC2 | – | – | – | – | Toxic | Toxic | – | – | – | 73% | 147% | 151% | 156% | – | – | – | – | – | – |
| CNC(=O)OCc1c(COC(=O)NC)c(-c2ccc(F)cc2)n2c1CCC2 | Toxic | 128% | – | 141% | Toxic | Toxic | 137% | 122% | – | – | – | – | – | 146% | Toxic | – | – | – | – |
| CC(C)NC(=O)OCc1c(COC(=O)NC(C)C)c(-c2ccc(F)cc2F)n2c1CCC2 | Toxic | 180% | 99% | 168% | Toxic | Toxic | 162% | 142% | – | – | – | – | – | – | – | 135% | – | – | – |
| CC(C)NC(=O)OCc1c(COC(=O)NC(C)C)c(-c2ccc(F)c(F)c2)n2c1CCC2 | – | 178% | 123% | 151% | Toxic | – | 160% | 126% | – | – | – | – | – | – | – | – | 92% | 70% | Toxic |
